Where two headings read alike, the source gives them in different places.
Legend:
[1] = biological target: T1, HBV genotype D RNAseH (HRHPL) (Hepatitis B virus genotype D subtype ayw, UniProt P03156, INS679M); assay: Oligonucleotide-directed RNAseH cleavage assay, HBV genotype D; format: biochemical; settings: for Residual activity at 10 uM, Genotype D: ± standard deviation, 3 to 7 replicates; for Activity vs. HBV Biochemical vs. gtD: class by concentration giving inhibition (10, 20, 60 μM); for IC50: read-out: IC50 against HBV genotype D RNAseH; for Residual activity at 10 uM, Genotype D / Inhibition of HBV genotype D RNAseH: 10 μM; for remaining activity at 10 µM: read-out: Residual activity at 10 uM, Genotype D
T1 construct: HRHPL contains HBV genotype D (Genbank V01460) polymerase residues 684-845; made in house; host or cells: E. coli BL21 codon+

[2] = biological target: T2, chimeric HBV:HIV RNAseH HHC1 (Hepatitis B virus genotype D subtype ayw, UniProt P03156, DELINS787-795[…]/INS679M); assay: Oligonucleotide-directed RNAseH cleavage assay, chimeric HHC1; format: biochemical; settings: 10 μM; ± standard deviation, 3 to 7 replicates
T2 construct: HHC1 is an HRHPL derivative; made in house; host or cells: E. coli BL21 codon+
From the text: pCMV-HBV-LE-(CMV-HBV) is an HBV over-length genomic expression vector containing 1.2 copies of the HBV(adw2) genome (Genbank X02763.1) downstream of the CMV promoter cloned into pBS (Promega). Surface protein expression from this vector is ablated by mutating the preS and S open reading frames. pCMV-HBV(genotype D) is an analogous HBV genomic expression construct and was a gift from Dr. Shuping Tong (Brown University). For bacterial expression, codon-optimized cDNA sequences for HRHPL (genotypes A, B, C, D, and H), and noncodon-optimized sequences for HHC1 and HHC2 were cloned by gene synthesis (Genscript) between the NcoI and EcoRI sites into pTrcHis2B (Invitrogen) with a C-terminal hexahistidine tag. HRHPL contains HBV genotype D (Genbank V01460) polymerase residues 684-845. HHC1 is an HRHPL derivative in which HBV polymerase residues 800-808 were replaced with HIV residues corresponding to the RNAseH helix D ([…]; SEQ ID NO:6). HHC2 is an HRHPL derivative in which HBV polymerase residues 800-845 were replaced with HIV residues corresponding to the RNAseH helix D to the C-terminus ([…]; SEQ ID NO:7). The human RNAseH1 gene (NP_002927.2) was cloned with an N-terminal hexahistidine-tag between the BamHI and XhoI sites of pRsetB (Invitrogen) by gene synthesis.
(§1) For the oligonucleotide-directed RNAseH cleavage assay (Gong et al., 2001), 6 μl protein extract (typical protein concentration 2.8 mg/ml) was mixed with 0.5 μg internally ^32P-labeled DRF+ RNA (nucleotides 2401-2605 of the duck HBV genome plus 60 nucleotides of flanking sequences from pBluescript) and 3 μg oligonucleotide D2507- or its corresponding negative control D2526+ on ice in 20 μl under the conditions in Table 1. Some reactions in FIG. 5 employed oligonucleotide D2543M-Sal or its D2453+ negative control as indicated. The reactions were incubated at 42° C. for 90 min. and terminated by addition of Laemmli protein loading buffer and boiling. The samples were resolved by 12% SDS-PAGE, the gels were stained with Coomassie blue to monitor protein loading, and labeled RNA was detected by autoradiography. Candidate inhibitors were dissolved in DMSO and added at the indicated concentrations during assembly of the reactions. Control reactions lacking the compounds contained DMSO as a vehicle control. The RNAseH autoradiograms were scanned and quantified with ImageJ. The oligonucleotides were: D2526+([…]; SEQ ID NO:8), D2507-([…]; SEQ ID NO:9), D2453+([…]; SEQ ID NO:10), and D2543M-Sal ([…]; SEQ ID NO:11).

[3] = tested on: HBV genotype C RNAseH; assay: Oligonucleotide-directed RNAseH cleavage assay, HBV genotype C; format: biochemical, Hepatitis B virus; settings: class by concentration giving inhibition (10, 20, 60 μM)
Procedure: as §1
Incremental improvements were developed in extraction of the HBV RNAseH from the bacterial cell pellets since the data were generated for Examples 1 and 2. Key among these was shifting from using a cup sonicator to a probe sonicator and reducing the duration of the sonication period from 3×60 second bursts to 3×20 second bursts. When the […] genotype C clone that had inconsistent activity under the old extraction conditions (FIG. 6C) was isolated under these conditions, it became consistently and robustly active (FIG. 16).

T2 sequence (P03156 680-786, added parts left off, stated change not applied): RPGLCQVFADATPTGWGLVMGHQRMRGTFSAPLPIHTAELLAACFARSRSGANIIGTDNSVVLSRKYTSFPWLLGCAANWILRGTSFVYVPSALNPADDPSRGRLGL
T1 sequence (P03156 680-832, added parts left off, stated change not applied): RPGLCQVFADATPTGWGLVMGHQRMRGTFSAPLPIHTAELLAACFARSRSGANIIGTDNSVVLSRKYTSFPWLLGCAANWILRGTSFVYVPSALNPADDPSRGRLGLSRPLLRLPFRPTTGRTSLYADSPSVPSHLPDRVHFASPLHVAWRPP

Compound | Residual activity at 10 uM, Genotype D [1] | Activity vs. HBV Biochemical vs. gtD [1] | Residual activity at 10 uM, HHC1 [2] | Activity vs. HBV Biochemical vs. gtC [3] | also measured
COc1ccc2ccccc2c1C=NNC(=O)c1cc(O)c(O)c(O)c1 [Compound 14] | 46 ± 20 Percent DMSO control | − (− no inhibition at 60 μM) | 72 ± 2 Percent DMSO control | – | –
Cc1cc(=O)oc2cc(O)c(O)cc12 [Compound 34] | 30 ± 15 Percent DMSO control | ++ (++ inhibition at 20 μM) | 39 ± 4 Percent DMSO control | +++ (+++ inhibition at 10 μM) | –
CC(C)c1ccc(O)c(=O)c(O)c1 [Compound 46, beta-thujaplicinol] | – | +++ (+++ inhibition at 10 μM) | – | +++ (+++ inhibition at 10 μM) | Difference between IC50 against HIV-1 RNAseH and HBV RNAseH [1]: ~10 fold; IC50 ([1]; listed as β-thujaplicinol): 6 µM; IC50 ([1]; listed as βTJ): 5.9 ± 0.7 µM
[N-]=[N+]=NCc1cccc(C(=O)CC(=O)C(=O)O)c1 [Compound 40] | 21 ± 16 Percent DMSO control | +++ (+++ inhibition at 10 μM) | 44 ± 10 Percent DMSO control | – | –
Cc1c2cc(O)c(=O)cc-2oc2cc(O)c(O)cc12 [Compound 8] | 33 ± 17 Percent DMSO control | ++ (++ inhibition at 20 μM) | 55 ± 18 Percent DMSO control | – | Inhibition ([1]; below 5 μM): ineffective; Inhibition ([1]; between 10 and 30 μM): 40-85%
NCc1ccc(-c2ccc(Cc3cc(=O)n(O)c4ncccc34)cc2)cc1 [Compound 12, napthyridinone] | 28 ± 12 Percent DMSO control | +++ (+++ inhibition at 10 μM) | 32 ± 8 Percent DMSO control | +++ (+++ inhibition at 10 μM) | IC50 [1]: 2.5 µM
CCOc1ccc(-c2c3cc(O)c(=O)cc-3oc3cc(O)c(O)cc23)cc1 [Compound 30] | 23 ± 6 Percent DMSO control | +++ (+++ inhibition at 10 μM) | 58 ± 12 Percent DMSO control | ++ (++ inhibition at 20 μM) | –
COc1cc2c(cc1Cc1cccc(Cl)c1F)c(=O)c(C(=O)O)cn2[C@H](CO)C(C)C [Compound 10, Elvitegravir, reference compound] | – | ++ (++ inhibition at 20 μM) | – | ++ (++ inhibition at 20 μM) | Inhibition of HBV genotype D RNAseH [1]: inhibited the HBV RNAseH; remaining activity at 10 µM [1]: 30 ± 8%
Cc1nnc(C(=O)NC(C)(C)c2nc(C(=O)NCc3ccc(F)cc3)c(O)c(=O)n2C)o1 [Compound 11, Raltegravir, reference compound] | – | ++ (++ inhibition at 20 μM) | – | ++ (++ inhibition at 20 μM) | Inhibition of HBV genotype D RNAseH [1]: inhibited the HBV RNAseH; remaining activity at 10 µM [1]: 29 ± 18%

Reference: US10329542B2, “HBV RNAse H purification and enzyme inhibitors” (Saint Louis University, priority 2012, dated 2019)
